According to publication PMC8991007, “Benzylic Dehydroxylation of Echinocandin Antifungal Drugs Restores Efficacy against Resistance Conferred by Mutated Glucan Synthase” (Journal of the American Chemical Society, 2022):
Like-named read-outs stand apart in the source and are kept apart here. *1 amine or outer side, *2 acyl side, *3 side chain or, on linkers, in order; H or OH if unused. Where a SMILES comes first, the peptide text is derived from it. Bridges are numbered along the chain shown (N, C = ends). [ ]: non-standard residue; d: D form. The star is where a group is joined. Orn(4R-OH,5R-OCH2CH2NMe3+) = C[N+](C)(C)CCO[C@@H](N[*:3])[C@H](O)C[C@H](N[*:1])C(=O)[*:2]; pTerphenylCO(4''-OnC5H11) = CCCCCOc1ccc(-c2ccc(-c3ccc(C(=O)*)cc3)cc2)cc1; Orn(4R-OH,5R-OH) = O=C([C@H](C[C@@H](O)[C@@H](O)N[*:3])N[*:1])[*:2]; hTyr(3S-OH,4S-OH) = N[C@H](C(=O)O)[C@H](O)[C@@H](O)c1ccc(O)cc1; Pro(3S-OH,4S-Me) = C[C@H]1CN[C@H](C(=O)O)[C@H]1O; hTyr(3R-OH) = N[C@H](C(=O)O)[C@H](O)Cc1ccc(O)cc1; Hyp = O=C(O)[C@@H]1C[C@@H](O)CN1

Assays:
THLE-2 cells = test: cells; assay type: cell-based; conditions: Homo sapiens
Procedure: The effects of ANF and RZF and their dehydroxylated derivatives 1 and 2 on the viability of human cells were further evaluated in an assay with THLE-2 cells, which are a transformed human liver epithelial cell line. These cells express phenotypic characteristics of normal adult liver epithelial cells.
THLE-2 cells (ATCC, cat. no. CRL2706) were cultured in 384-well plates coated with BEBM (Lonza, cat. no CC3170) containing 100 μg/mL BSA, 1:100 fibronectin (Sigma, cat. no. F0895), and a 1:100 PureCol EZ Gel Solution (Sigma, cat. no. 5074) for 50–60 min at 37 °C. THLE-2 cells were plated at a density of 2.5 × 10^3 cells/well in the coated plates in a total volume of 20 μL. Culture media were BEGM supplemented with 5 ng/mL hEGF (Sigma, cat. no. E5036), 70 ng/mL phosphoethanolamine (Sigma, cat. no. P0503), and 10% fetal bovine serum. Plates were incubated overnight at 37 °C, 95% humidity, and 5% CO2. The culture medium was replaced with 50 μL of a fresh medium, and compounds were applied to the cells in triplicate. Plates were cultured for another 72 h, and ATP was quantified using a CellTiter-Glo kit (Promega #G7573) according to the manufacturer’s protocol. The luminescence signal was detected using a PHERAstar FS (BMG Labtech).

[1] = design: method as in PMID 23335738; conditions: patients with candidemia or invasive candidiasis, 200 mg loading dose day 1 then daily 100 mg; cited from earlier work
[2] = healthy volunteers, single 400 mg dose, a few hours after administration; cited from earlier work
[3] = THLE-2, 72 h of incubation, ranges for ANF and 1 and for RZF and 2 stated jointly, read-out: IC50 value (THLE-2 viability)
[4] = THLE-2, 72 h, ATP luminescence, read-out: IC50 (cell viability)

CCCCCOc1ccc(-c2ccc(-c3ccc(C(=O)N[C@H]4C[C@@H](O)[C@@H](O)NC(=O)[C@@H]5[C@@H](O)[C@@H](C)CN5C(=O)[C@H]([C@@H](C)O)NC(=O)[C@H]([C@H](O)[C@@H](O)c5ccc(O)cc5)NC(=O)[C@@H]5C[C@@H](O)CN5C(=O)[C@H]([C@@H](C)O)NC4=O)cc3)cc2)cc1 [ANF, anidulafungin] ({pTerphenylCO(4''-OnC5H11)}-[Orn(4R-OH,5R-OH)]T[Hyp][hTyr(3S-OH,4S-OH)]T[Pro(3S-OH,4S-Me)]; lactam 1-C)
IC50 (THLE-2 cells; [3]): 36 to 41 µM | IC50 (THLE-2 cells; [4]): 40.6 ± 2.9 µM | Cmax [1]: ~7 µM

CCCCCOc1ccc(-c2ccc(-c3ccc(C(=O)N[C@H]4C[C@@H](O)[C@@H](O)NC(=O)[C@@H]5[C@@H](O)[C@@H](C)CN5C(=O)[C@H]([C@@H](C)O)NC(=O)[C@H]([C@H](O)Cc5ccc(O)cc5)NC(=O)[C@@H]5C[C@@H](O)CN5C(=O)[C@H]([C@@H](C)O)NC4=O)cc3)cc2)cc1 [Compound 1, dehydroxy-ANF] ({pTerphenylCO(4''-OnC5H11)}-[Orn(4R-OH,5R-OH)]T[Hyp][hTyr(3R-OH)]T[Pro(3S-OH,4S-Me)]; lactam 1-C)
IC50 (THLE-2 cells; [3]): 36 to 41 µM | IC50 (THLE-2 cells; [4]): 36.4 ± 2.75 µM

CCCCCOc1ccc(-c2ccc(-c3ccc(C(=O)N[C@H]4C[C@@H](O)[C@@H](OCC[N+](C)(C)C)NC(=O)[C@@H]5[C@@H](O)[C@@H](C)CN5C(=O)[C@H]([C@@H](C)O)NC(=O)[C@H]([C@H](O)Cc5ccc(O)cc5)NC(=O)[C@@H]5C[C@@H](O)CN5C(=O)[C@H]([C@@H](C)O)NC4=O)cc3)cc2)cc1 [Compound 2, dehydroxy-RZF] ({pTerphenylCO(4''-OnC5H11)}-[Orn(4R-OH,5R-OCH2CH2NMe3+)]T[Hyp][hTyr(3R-OH)]T[Pro(3S-OH,4S-Me)]; lactam 1-C)
IC50 (THLE-2 cells; [3]): 36 to 77 µM | IC50 (THLE-2 cells; [4]): 55.9 ± 3 µM

CCCCCOc1ccc(-c2ccc(-c3ccc(C(=O)N[C@H]4C[C@@H](O)[C@@H](OCC[N+](C)(C)C)NC(=O)[C@@H]5[C@@H](O)[C@@H](C)CN5C(=O)[C@H]([C@@H](C)O)NC(=O)[C@H]([C@H](O)[C@@H](O)c5ccc(O)cc5)NC(=O)[C@@H]5C[C@@H](O)CN5C(=O)[C@H]([C@@H](C)O)NC4=O)cc3)cc2)cc1 [RZF, rezafungin] ({pTerphenylCO(4''-OnC5H11)}-[Orn(4R-OH,5R-OCH2CH2NMe3+)]T[Hyp][hTyr(3S-OH,4S-OH)]T[Pro(3S-OH,4S-Me)]; lactam 1-C)
IC50 (THLE-2 cells; [3]): 36 to 77 µM | IC50 (THLE-2 cells; [4]): 76.6 ± 4.8 µM | Cmax [2]: ~17 µM
